The values below are quoted from earlier work in US8657943B2, “1-hydroxy-2-O-acyl-sn-glycero-3-phosphocholine compounds, preparation process, antifouling composition, process for its preparation, method to prevent fouling, method to turn a surface into an antifouling surface, and, covered surface” (UFRJ, IEAPM, UFF, priority 2010, dated 2014).

One data set concerns mussels. The settings on record: concentrations of up to 100 ng/L in seawater.
A further data set has as its system Ostrea edulis. The settings on record: 75 days exposure, 0.24 μg/L.
A further data set deals with different cell types. The settings on record: very low concentrations.

As for tri-butyl tin [TBT], the “effect on the growth of mussels” value with mussels is recorded as “significant reductions in the growth of mussels”. Also, in the data set on Ostrea edulis, the larval production entry was “completely inhibited” and the “sex change male to female” value is listed as “a delay in changing sex male to female was observed”.
For “1-O-alkyl-2-acetyl-sn-glycero-3-phosphocholine [platelet activating factor]”, the “concentrations that trigger physiological responses” value in the data set with different cell types is 10^−12 to 10^−9 M.
